ChEMBL document CHEMBL1123701, “Synthesis and quantitative structure-activity relationship analysis of N-triiodoallyl- and N-iodopropargylazoles. New antifungal agents” (1987)
In brackets after ≈: the same amount, converted by molar mass.

Assays:
Aspergillus fumigatus = test: Antifungal activity against Aspergillus fumigatus Saito strain; type: functional
Candida albicans = test: Antifungal activity against Candida albicans C-A-24 strain; type: functional
Cryptococcus neoformans = test: Antifungal activity against Cryptococcus neoformans Cr-1 strain; type: functional
[1] = tested on: Trichophyton interdigitale; test: Antifungal activity towards Trichophyton interdigitale; type: functional
Trichophyton benhamiae = test: Antifungal activity towards Trichophyton mentagrophytes 530324 strain; type: functional, Arthroderma benhamiae

Structure (SMILES)	MIC (Aspergillus fumigatus) [µg/mL]	MIC (Candida albicans) [µg/mL]	MIC (Cryptococcus neoformans) [µg/mL]	MIC [1] [µg/mL]	MIC (Trichophyton benhamiae) [µg/mL]
IC#CCn1ncnn1	0.39 (≈ 1.67 µM)	1.56 (≈ 6.67 µM)	0.39 (≈ 1.67 µM)	0.78 (≈ 3.33 µM)	0.78 (≈ 3.33 µM)
CC(C)Cc1nnn(CC#CI)n1	0.78 (≈ 2.69 µM)	3.13 (≈ 10.8 µM)	3.13 (≈ 10.8 µM)	0.39 (≈ 1.34 µM)	0.39 (≈ 1.34 µM)
COc1ccc(-c2nnnn2CC#CI)cc1	0.78 (≈ 2.29 µM)	25 (≈ 73.5 µM)	25 (≈ 73.5 µM)	0.2 (≈ 0.588 µM)	0.1 (≈ 0.294 µM)
Oc1ccc(-c2nnn(CC#CI)n2)cc1	0.39 (≈ 1.2 µM)	6.25 (≈ 19.2 µM)	12.5 (≈ 38.3 µM)	0.1 (≈ 0.307 µM)	0.2 (≈ 0.613 µM)
CN(C)c1ccc(-c2nnn(CC#CI)n2)cc1	50 (≈ 142 µM)	50 (≈ 142 µM)	50 (≈ 142 µM)	0.78 (≈ 2.21 µM)	0.78 (≈ 2.21 µM)
CC(C)Cc1nnnn1CC#CI	3.13 (≈ 10.8 µM)	12.5 (≈ 43.1 µM)	6.25 (≈ 21.5 µM)	1.56 (≈ 5.38 µM)	1.56 (≈ 5.38 µM)
CC(C)(C)c1nnn(CC#CI)n1	1.56 (≈ 5.38 µM)	3.13 (≈ 10.8 µM)	25 (≈ 86.2 µM)	0.78 (≈ 2.69 µM)	0.78 (≈ 2.69 µM)
CCCCCCCc1nnnn1CC(I)=C(I)I		> 25	> 25	0.1 (≈ 0.171 µM)	0.1 (≈ 0.171 µM)
CCCCCc1nnnn1CC(I)=C(I)I			> 25	0.1 (≈ 0.179 µM)	0.1 (≈ 0.179 µM)
CCCCCCCc1nnn(CC#CI)n1	0.78 (≈ 2.35 µM)	12.5 (≈ 37.6 µM)	6.25 (≈ 18.8 µM)	0.1 (≈ 0.301 µM)	0.1 (≈ 0.301 µM)
Clc1ccc(-c2nnnn2CC#CI)cc1	0.39 (≈ 1.13 µM)	1.56 (≈ 4.53 µM)		0.39 (≈ 1.13 µM)	0.2 (≈ 0.58 µM)
IC#CCn1nnc(Cc2ccccc2)n1	0.78 (≈ 2.41 µM)	6.25 (≈ 19.3 µM)	6.25 (≈ 19.3 µM)	0.1 (≈ 0.309 µM)	0.1 (≈ 0.309 µM)
O=[N+]([O-])c1ccc(-c2nnn(CC(I)=C(I)I)n2)cc1	> 100	> 100	> 100	> 100	> 100
IC#CCn1nnnc1Cc1ccccc1	1.56 (≈ 4.81 µM)	12.5 (≈ 38.6 µM)	12.5 (≈ 38.6 µM)	0.39 (≈ 1.2 µM)	0.78 (≈ 2.41 µM)
IC#CCn1nnnc1C1CC1	3.13 (≈ 11.4 µM)	12.5 (≈ 45.6 µM)	12.5 (≈ 45.6 µM)	3.13 (≈ 11.4 µM)	1.56 (≈ 5.69 µM)
Cc1ccc(-c2nnn(CC#CI)n2)cc1					0.2 (≈ 0.617 µM)
IC(I)=C(I)Cn1nnc(-c2ccccc2)n1		12.5 (≈ 22.2 µM)		3.13 (≈ 5.55 µM)	1.56 (≈ 2.77 µM)
IC#CCn1cnnn1	1.56 (≈ 6.67 µM)	3.13 (≈ 13.4 µM)	0.78 (≈ 3.33 µM)	1.56 (≈ 6.67 µM)	1.56 (≈ 6.67 µM)
Clc1ccccc1-c1nnn(CC#CI)n1	0.78 (≈ 2.26 µM)	1.56 (≈ 4.53 µM)	1.56 (≈ 4.53 µM)	0.1 (≈ 0.29 µM)	0.1 (≈ 0.29 µM)
IC(I)=C(I)Cn1nnc(C2CC2)n1	0.39 (≈ 0.739 µM)	3.13 (≈ 5.93 µM)	3.13 (≈ 5.93 µM)	0.2 (≈ 0.379 µM)	0.2 (≈ 0.379 µM)
CCOCCc1nnnn1CC(I)=C(I)I	3.13 (≈ 5.59 µM)	6.25 (≈ 11.2 µM)	6.25 (≈ 11.2 µM)	1.56 (≈ 2.79 µM)	0.1 (≈ 0.179 µM)
COC(=O)c1cccn1CC#CI	1.56 (≈ 5.4 µM)	3.13 (≈ 10.8 µM)	6.25 (≈ 21.6 µM)	1.56 (≈ 5.4 µM)	1.56 (≈ 5.4 µM)

The next lines start with the values.

MIC (Aspergillus fumigatus) [µg/mL]	MIC (Candida albicans) [µg/mL]	MIC (Cryptococcus neoformans) [µg/mL]	MIC [1] [µg/mL]	MIC (Trichophyton benhamiae) [µg/mL]	Structure (SMILES)
	6.25 (≈ 11.8 µM)			0.78 (≈ 1.47 µM)	CC(C)c1nnn(CC(I)=C(I)I)n1
0.39 (≈ 0.777 µM)	0.78 (≈ 1.55 µM)		0.2 (≈ 0.399 µM)	0.2 (≈ 0.399 µM)	Cc1nnn(CC(I)=C(I)I)n1
	3.13 (≈ 6.24 µM)			0.78 (≈ 1.55 µM)	Cc1nnnn1CC(I)=C(I)I
6.25 (≈ 12.5 µM)	12.5 (≈ 25 µM)	25 (≈ 50 µM)	3.13 (≈ 6.26 µM)	6.25 (≈ 12.5 µM)	Cc1nccn1CC(I)=C(I)I
0.2 (≈ 0.334 µM)	0.39 (≈ 0.651 µM)	0.2 (≈ 0.334 µM)		0.2 (≈ 0.334 µM)	O=[N+]([O-])c1cn(CC(I)=C(I)I)c(Cl)c1Cl
0.39 (≈ 0.736 µM)	0.39 (≈ 0.736 µM)	6.25 (≈ 11.8 µM)	0.1 (≈ 0.189 µM)	0.2 (≈ 0.377 µM)	O=[N+]([O-])c1cccn1CC(I)=C(I)I
1.56 (≈ 2.65 µM)	3.13 (≈ 5.32 µM)	3.13 (≈ 5.32 µM)	0.39 (≈ 0.663 µM)	0.39 (≈ 0.663 µM)	COC(=O)c1cc([N+](=O)[O-])cn1CC(I)=C(I)I
	3.13 (≈ 6.42 µM)	3.13 (≈ 6.42 µM)		0.39 (≈ 0.799 µM)	IC(I)=C(I)Cn1cnnn1
0.2 (≈ 0.377 µM)	0.2 (≈ 0.377 µM)			0.2 (≈ 0.377 µM)	O=[N+]([O-])c1ccn(CC(I)=C(I)I)c1
1.56 (≈ 3.21 µM)	1.56 (≈ 3.21 µM)		3.13 (≈ 6.44 µM)	1.56 (≈ 3.21 µM)	IC(I)=C(I)Cn1ccnc1
	0.78 (≈ 1.47 µM)			0.78 (≈ 1.47 µM)	O=[N+]([O-])c1nccn1CC(I)=C(I)I
0.39 (≈ 0.735 µM)	3.13 (≈ 5.9 µM)	6.25 (≈ 11.8 µM)	0.39 (≈ 0.735 µM)	0.78 (≈ 1.47 µM)	O=[N+]([O-])c1cn(CC(I)=C(I)I)cn1
0.2 (≈ 0.41 µM)	0.2 (≈ 0.41 µM)		0.1 (≈ 0.205 µM)	0.1 (≈ 0.205 µM)	IC(I)=C(I)Cn1ncnn1
0.78 (≈ 1.6 µM)	3.13 (≈ 6.43 µM)	6.25 (≈ 12.8 µM)	0.78 (≈ 1.6 µM)	0.39 (≈ 0.801 µM)	IC(I)=C(I)Cn1ccnn1
